# What was measured:
# Format in all cases: in vivo
# [1] = system: green foxtail (Setaria viridis, SETVI); assay: Pre-emerge greenhouse herbicide activity screening, phytotoxicity rating; conditions: 14 days after application
# Description: (§1) A standard greenhouse herbicide activity screening system was used to evaluate the herbicidal efficacy and crop safety of these test compounds. Seven broadleaf weed species including redroot pigweed (Amaranthus retroflexus, AMARE), velvetleaf (Abutilon theophrasti, ABUTH), sicklepod (Cassia obtusifolia, CASOB), ivyleaf morningglory (Ipomoea hederacea, IPOHE), lambsquarters (Chenopodium album, CHEAL), common ragweed (Ambrosia artemisiifolia L., AMBEL), and cocklebur (Xanthium strumarium, XANST) were used as test species. Four grass weed species including green foxtail (Setaria viridis, SETVI), barnyardgrass (Echinochloa crus-galli, ECHCG), johnsongrass (Sorghum halepense, SORHA), and large crabgrass (Digitaria sanguinalis, DIGSA) were also used. In addition, three crop species, field corn (Zea mays L., var. Dekalb 535, CORN), soybean (Glycine max L., var. Pella 86, SOY), and upland rice (Oryza sp., var.Tebonnet, RICE) were included.
# (§2) All plants were grown in 10 cm square plastic pots which were filled with a sandy loam soil mix. For pre-emerge tests, seeds were planted one day prior to application of the test compounds. For post-emerge tests, seeds were planted 8-21 days prior to the test to allow emergence and good foliage development prior to application of the test substances. At the time of the post-emerge application, plants of all species were usually at the 2-3 leaf stage of development.
# (§3) All test compounds were dissolved in acetone and applied to the test units in a volume of 187 1/ha. Test materials were applied at rates ranging from 15 g ai/ha to 1000 g ai/ha using a track sprayer equipped with a TJ8001E even flow flat fan spray nozzle. Plants were arranged on a shelf so that the top of the canopy (post-emerge) or top of the soil surface (pre-emerge) was 40-45 cm below the nozzle. Pressurized air was used to force the test solution through the nozzle as it was mechanically advanced (via electrically driven chain drive) over the top of all test plants/pots. This application simulates a typical commercial field herbicide application.
# (§4) In the post-emerge test, a commercial non-ionic surfactant was also included (0.25% v/v) to enhance wetting of the leaf surfaces of target plants. Immediately after application, test units of the pre-emerge applications were watered at the soil surface to incorporate the test materials. Subsequently, these test units were bottom-watered. Post-emerge test units were always bottom-watered.
# (§5) At 14 days after application of the test materials, phytotoxicity ratings were recorded. A rating scale of 0-100 was used as previously described in Research Methods in Weed Science, 2nd edition, B. Truelove, Ed., Southern Weed Science Society, Auburn University, Auburn, Ala., 1977. Briefly, “0” corresponds to no damage and “100” corresponds to complete death of all plants in the test unit. This scale was used both to determine efficacy against weed species and damage to crop species. Herbicide activity data for various compounds of this invention, which are shown by compound No. in Tables I-VI, are shown in Tables VIII-IX.
# [2] = system: barnyardgrass (Echinochloa crus-galli, ECHCG); assay: as above; conditions: 14 days after application
# Description: as §1, §2, §3, §4, §5
# [3] = system: johnsongrass (Sorghum halepense, SORHA); assay: as above; conditions: 14 days after application
# Description: as §1, §2, §3, §4, §5
# [4] = system: sicklepod (Cassia obtusifolia, CASOB); assay: as above; conditions: 14 days after application
# Description: as §1, §2, §3, §4, §5
# [5] = system: large crabgrass (Digitaria sanguinalis, DIGSA); assay: as above; conditions: 14 days after application
# Description: as §1, §2, §3, §4, §5
# [6] = system: lambsquarters (Chenopodium album, CHEAL); assay: as above; conditions: 14 days after application
# Description: as §1, §2, §3, §4, §5
# [7] = system: ivyleaf morningglory (Ipomoea hederacea, IPOHE); assay: as above; conditions: 14 days after application
# Description: as §1, §2, §3, §4, §5
# [8] = system: common ragweed (Ambrosia artemisiifolia L., AMBEL); assay: as above; conditions: 14 days after application
# Description: as §1, §2, §3, §4, §5
# [9] = system: redroot pigweed (Amaranthus retroflexus, AMARE); assay: as above; conditions: 14 days after application
# Description: as §1, §2, §3, §4, §5
# [10] = system: velvetleaf (Abutilon theophrasti, ABUTH); assay: as above; conditions: 14 days after application
# Description: as §1, §2, §3, §4, §5
# [11] = system: soybean (Glycine max L., var. Pella 86, SOY); assay: Post-emerge greenhouse screening, crop safety (phytotoxicity rating); conditions: 14 days after application
# Description: as §1, §2, §3, §4, §5
# [12] = system: upland rice (Oryza sp., var.Tebonnet, RICE); assay: as above; conditions: 14 days after application
# Description: as §1, §2, §3, §4, §5
# [13] = system: field corn (Zea mays L., var. Dekalb 535, CORN); assay: Post-emerge greenhouse screening, crop safety / corn selectivity (phytotoxicity rating); conditions: 14 days after application
# Description: as §1, §2, §3, §4, §5
# [14] = system: soybean (Glycine max L., var. Pella 86, SOY); assay: Pre-emerge greenhouse screening, crop safety (phytotoxicity rating); conditions: 14 days after application
# Description: as §1, §2, §3, §4, §5
# [15] = system: upland rice (Oryza sp., var.Tebonnet, RICE); assay: as above; conditions: 14 days after application
# Description: as §1, §2, §3, §4, §5
# [16] = system: field corn (Zea mays L., var. Dekalb 535, CORN); assay: as above; conditions: 14 days after application
# Description: as §1, §2, §3, §4, §5
# [17] = system: green foxtail (Setaria viridis, SETVI); assay: Post-emerge greenhouse herbicide activity screening, phytotoxicity rating
# Description: as §1, §2, §3, §4, §5
# [18] = system: barnyardgrass (Echinochloa crus-galli, ECHCG); assay: as above; conditions: 14 days after application
# Description: as §1, §2, §3, §4, §5
# [19] = system: johnsongrass (Sorghum halepense, SORHA); assay: as above; conditions: 14 days after application
# Description: as §1, §2, §3, §4, §5
# [20] = system: sicklepod (Cassia obtusifolia, CASOB); assay: as above
# Description: as §1, §2, §3, §4, §5
# [21] = system: large crabgrass (Digitaria sanguinalis, DIGSA); assay: as above; conditions: 14 days after application
# Description: as §1, §2, §3, §4, §5
# [22] = system: lambsquarters (Chenopodium album, CHEAL); assay: as above
# Description: as §1, §2, §3, §4, §5
# [23] = system: ivyleaf morningglory (Ipomoea hederacea, IPOHE); assay: as above; conditions: 14 days after application
# Description: as §1, §2, §3, §4, §5
# [24] = system: common ragweed (Ambrosia artemisiifolia L., AMBEL); assay: as above
# Description: as §1, §2, §3, §4, §5
# [25] = system: redroot pigweed (Amaranthus retroflexus, AMARE); assay: as above
# Description: as §1, §2, §3, §4, §5
# [26] = system: velvetleaf (Abutilon theophrasti, ABUTH); assay: as above; conditions: 14 days after application
# Description: as §1, §2, §3, §4, §5
# [27] = 125 g ai/ha, 14 days after application
# [28] = 250 g ai/ha, 14 days after application
compound,measurement,setting,value
Cn1c(C(F)(F)F)cc(=O)n(-c2cc(Oc3ccccc3[N+](=O)[O-])c(Cl)cc2F)c1=S [Compound 1-49],SETVI phytotoxicity rating (0-100 scale),[1]; 125 g ai/ha,99
same,SETVI phytotoxicity rating (0-100 scale),[1]; 250 g ai/ha,100
same,ECHCG phytotoxicity rating (0-100 scale),[2]; 125 g ai/ha,45
same,ECHCG phytotoxicity rating (0-100 scale),[2]; 250 g ai/ha,98
same,SORHA phytotoxicity rating (0-100 scale),[3]; 125 g ai/ha,40
same,SORHA phytotoxicity rating (0-100 scale),[3]; 250 g ai/ha,60
same,CASOB phytotoxicity rating (0-100 scale),[4]; 125 g ai/ha,50
same,CASOB phytotoxicity rating (0-100 scale),[4]; 250 g ai/ha,70
same,DIGSA phytotoxicity rating (0-100 scale),[5]; 125 g ai/ha,95
same,DIGSA phytotoxicity rating (0-100 scale),[5]; 250 g ai/ha,99
same,CHEAL phytotoxicity rating (0-100 scale),[6]; 125 g ai/ha,100
same,CHEAL phytotoxicity rating (0-100 scale),[6]; 250 g ai/ha,100
same,IPOHE phytotoxicity rating (0-100 scale),[7]; 125 g ai/ha,75
same,IPOHE phytotoxicity rating (0-100 scale),[7]; 250 g ai/ha,80
same,AMBEL phytotoxicity rating (0-100 scale),[8]; 125 g ai/ha,70
same,AMBEL phytotoxicity rating (0-100 scale),[8]; 250 g ai/ha,80
same,AMARE phytotoxicity rating (0-100 scale),[9]; 125 g ai/ha,100
same,AMARE phytotoxicity rating (0-100 scale),[9]; 250 g ai/ha,100
same,ABUTH phytotoxicity rating (0-100 scale),[10]; 125 g ai/ha,95
same,ABUTH phytotoxicity rating (0-100 scale),[10]; 250 g ai/ha,100
same,"SOY crop damage, phytotoxicity rating (0-100 scale)",[11]; 125 g ai/ha,10
same,"SOY crop damage, phytotoxicity rating (0-100 scale)",[11]; 250 g ai/ha,15
same,"RICE crop damage, phytotoxicity rating (0-100 scale)",[12]; 125 g ai/ha,0
same,"RICE crop damage, phytotoxicity rating (0-100 scale)",[12]; 250 g ai/ha,25
same,"CORN crop damage, phytotoxicity rating (0-100 scale)",[13]; 125 g ai/ha,0
same,"CORN crop damage, phytotoxicity rating (0-100 scale)",[13]; 250 g ai/ha,0
same,"SOY crop damage, phytotoxicity rating (0-100 scale)",[14]; 125 g ai/ha,0
same,"SOY crop damage, phytotoxicity rating (0-100 scale)",[14]; 250 g ai/ha,0
same,"RICE crop damage, phytotoxicity rating (0-100 scale)",[15]; 125 g ai/ha,30
same,"RICE crop damage, phytotoxicity rating (0-100 scale)",[15]; 250 g ai/ha,35
same,"CORN crop damage, phytotoxicity rating (0-100 scale)",[16]; 125 g ai/ha,0
same,"CORN crop damage, phytotoxicity rating (0-100 scale)",[16]; 250 g ai/ha,0
same,SETVI phytotoxicity rating (0-100 scale),[17]; 31.3 g ai/ha,0
same,SETVI phytotoxicity rating (0-100 scale),[17]; 62.5 g ai/ha,0
same,SETVI phytotoxicity rating (0-100 scale),[17]; [27],0
same,SETVI phytotoxicity rating (0-100 scale),[17]; [28],0
same,ECHCG phytotoxicity rating (0-100 scale),[18]; 125 g ai/ha,0
same,ECHCG phytotoxicity rating (0-100 scale),[18]; 250 g ai/ha,0
same,SORHA phytotoxicity rating (0-100 scale),[19]; 125 g ai/ha,0
same,SORHA phytotoxicity rating (0-100 scale),[19]; 250 g ai/ha,0
same,CASOB phytotoxicity rating (0-100 scale),[20]; 31.3 g ai/ha,60
same,CASOB phytotoxicity rating (0-100 scale),[20]; 62.5 g ai/ha,70
same,CASOB phytotoxicity rating (0-100 scale),[20]; [27],75
same,CASOB phytotoxicity rating (0-100 scale),[20]; [28],75
same,DIGSA phytotoxicity rating (0-100 scale),[21]; 125 g ai/ha,0
same,DIGSA phytotoxicity rating (0-100 scale),[21]; 250 g ai/ha,0
same,CHEAL phytotoxicity rating (0-100 scale),[22]; 31.3 g ai/ha,98
same,CHEAL phytotoxicity rating (0-100 scale),[22]; 62.5 g ai/ha,98
same,CHEAL phytotoxicity rating (0-100 scale),[22]; [27],99
same,CHEAL phytotoxicity rating (0-100 scale),[22]; [28],100
same,IPOHE phytotoxicity rating (0-100 scale),[23]; 125 g ai/ha,80
same,IPOHE phytotoxicity rating (0-100 scale),[23]; 250 g ai/ha,80
same,AMBEL phytotoxicity rating (0-100 scale),[24]; 31.3 g ai/ha,65
same,AMBEL phytotoxicity rating (0-100 scale),[24]; 62.5 g ai/ha,65
same,AMBEL phytotoxicity rating (0-100 scale),[24]; [27],70
same,AMBEL phytotoxicity rating (0-100 scale),[24]; [28],70
same,AMARE phytotoxicity rating (0-100 scale),[25]; 31.3 g ai/ha,98
same,AMARE phytotoxicity rating (0-100 scale),[25]; 62.5 g ai/ha,98
same,AMARE phytotoxicity rating (0-100 scale),[25]; [27],99
same,AMARE phytotoxicity rating (0-100 scale),[25]; [28],100
same,ABUTH phytotoxicity rating (0-100 scale),[26]; 125 g ai/ha,98
same,ABUTH phytotoxicity rating (0-100 scale),[26]; 250 g ai/ha,100
